Assay results taken from PubChem BioAssay (NCI).
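Tested at 5 concentrations; 48 h exposure; 96-well plates; endpoints linearly interpolated, else capped at highest concentration. GI50 is the concentration that inhibits growth by half. TGI: total growth inhibition.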

Assays:
Test in all cases: growth of human tumour cells (NCI), 48 h
786-0 renal = tested on: 786-0 renal
A498 renal = tested on: A498 renal
ACHN renal = tested on: ACHN renal
BT-549 breast = tested on: BT-549 breast
CAKI-1 renal = tested on: CAKI-1 renal
CCRF-CEM leukemia = tested on: CCRF-CEM leukemia
COLO 205 colon = tested on: COLO 205 colon
DU-145 prostate = tested on: DU-145 prostate
EKVX NSCLC = tested on: EKVX NSCLC
HCC-2998 colon = tested on: HCC-2998 colon
HCT-116 colon = tested on: HCT-116 colon
HCT-15 colon = tested on: HCT-15 colon
HL-60(TB) leukemia = tested on: HL-60(TB) leukemia
HOP-62 NSCLC = tested on: HOP-62 NSCLC
HOP-92 NSCLC = tested on: HOP-92 NSCLC
HS 578T breast = tested on: HS 578T breast
HT29 colon = tested on: HT29 colon
IGROV1 ovarian = tested on: IGROV1 ovarian
K-562 leukemia = tested on: K-562 leukemia
KM12 colon = tested on: KM12 colon
LOX IMVI melanoma = tested on: LOX IMVI melanoma
M14 melanoma = tested on: M14 melanoma
MALME-3M melanoma = tested on: MALME-3M melanoma
MCF7 breast = tested on: MCF7 breast
MDA-MB-231 breast = tested on: MDA-MB-231 breast
MDA-MB-435 = tested on: MDA-MB-435
MOLT-4 leukemia = tested on: MOLT-4 leukemia
NCI-H23 lung = tested on: NCI-H23 lung
NCI-H460 lung = tested on: NCI-H460 lung
NCI-H522 lung = tested on: NCI-H522 lung
NCI/ADR-RES ovarian = tested on: NCI/ADR-RES ovarian
OVCAR-4 ovarian = tested on: OVCAR-4 ovarian
OVCAR-5 ovarian = tested on: OVCAR-5 ovarian
OVCAR-8 ovarian = tested on: OVCAR-8 ovarian
PC-3 prostate = tested on: PC-3 prostate
RPMI-8226 leukemia = tested on: RPMI-8226 leukemia
RXF 393 renal = tested on: RXF 393 renal
SF-268 CNS = tested on: SF-268 CNS
SF-295 CNS = tested on: SF-295 CNS
SF-539 CNS = tested on: SF-539 CNS
SK-MEL-2 melanoma = tested on: SK-MEL-2 melanoma
SK-MEL-28 melanoma = tested on: SK-MEL-28 melanoma
SK-MEL-5 melanoma = tested on: SK-MEL-5 melanoma
SK-OV-3 ovarian = tested on: SK-OV-3 ovarian
SN12C renal = tested on: SN12C renal
SNB-19 CNS = tested on: SNB-19 CNS
SNB-75 CNS = tested on: SNB-75 CNS
SR leukemia = tested on: SR leukemia
SW-620 colon = tested on: SW-620 colon
T-47D breast = tested on: T-47D breast
TK-10 renal = tested on: TK-10 renal
U251 CNS = tested on: U251 CNS
UACC-257 melanoma = tested on: UACC-257 melanoma
UACC-62 melanoma = tested on: UACC-62 melanoma
UO-31 renal = tested on: UO-31 renal

`COc1ccc2c(c1)c(CC(=O)[Se]CC#N)c(C)n2C(=O)c1ccc(Cl)cc1` was tested, and the GI50 (786-0 renal) was 1.88 µM, the TGI (786-0 renal) was 3.61 µM and the GI50 (A498 renal) was 2.04 µM. The TGI (A498 renal) was 4.75 µM, the GI50 (ACHN renal) was 2.11 µM and the TGI (ACHN renal) was 5.61 µM. For the same compound, the GI50 (BT-549 breast) was 2.05 µM, the TGI (BT-549 breast) was 4.68 µM and the GI50 (CAKI-1 renal) was 1.78 µM. The TGI (CAKI-1 renal) was 3.53 µM, the GI50 (CCRF-CEM leukemia) was 2.6 µM and the TGI (CCRF-CEM leukemia) was greater than 100 µM. The GI50 (COLO 205 colon) was 1.59 µM, the TGI (COLO 205 colon) was 3.1 µM and the GI50 (DU-145 prostate) was 1.79 µM. It also gave a TGI (DU-145 prostate) of 3.48 µM, a GI50 (EKVX NSCLC) of 1.42 µM and a TGI (EKVX NSCLC) of 3.45 µM. For the same compound, the GI50 (HCC-2998 colon) was 1.79 µM, the TGI (HCC-2998 colon) was 3.5 µM and the GI50 (HCT-116 colon) was 0.359 µM. It also gave a TGI (HCT-116 colon) of 1.27 µM, a GI50 (HCT-15 colon) of 1.2 µM and a TGI (HCT-15 colon) of 3 µM. The GI50 (HL-60(TB) leukemia) was 2.95 µM, the TGI (HL-60(TB) leukemia) was greater than 100 µM and the GI50 (HOP-62 NSCLC) was 1.11 µM. It also gave a TGI (HOP-62 NSCLC) of 3.2 µM, a GI50 (HOP-92 NSCLC) of 1.75 µM and a TGI (HOP-92 NSCLC) of 4.7 µM. For the same compound, the GI50 (HS 578T breast) was 2.62 µM, the TGI (HS 578T breast) was 8.91 µM and the GI50 (HT29 colon) was 2.01 µM. It also gave a TGI (HT29 colon) of 5.03 µM, a GI50 (IGROV1 ovarian) of 1.7 µM and a TGI (IGROV1 ovarian) of 3.82 µM. For the same compound, the GI50 (K-562 leukemia) was 3.17 µM, the TGI (K-562 leukemia) was greater than 100 µM and the GI50 (KM12 colon) was 1.46 µM. The TGI (KM12 colon) was 3.16 µM, the GI50 (LOX IMVI melanoma) was 1.91 µM and the TGI (LOX IMVI melanoma) was 4.12 µM. The GI50 (M14 melanoma) was 1.43 µM, the TGI (M14 melanoma) was 3.02 µM and the GI50 (MALME-3M melanoma) was 1.94 µM. It also gave a TGI (MALME-3M melanoma) of 5.21 µM, a GI50 (MCF7 breast) of 2.02 µM and a TGI (MCF7 breast) of 4.9 µM. For the same compound, the GI50 (MDA-MB-231 breast) was 2.2 µM, the TGI (MDA-MB-231 breast) was 6.6 µM and the GI50 (MDA-MB-435) was 1.79 µM. The TGI (MDA-MB-435) was 3.44 µM, the GI50 (MOLT-4 leukemia) was 3.37 µM and the TGI (MOLT-4 leukemia) was greater than 100 µM. It also gave a GI50 (NCI-H23 lung) of 2.36 µM, a TGI (NCI-H23 lung) of 6.19 µM and a GI50 (NCI-H460 lung) of 1.97 µM. The TGI (NCI-H460 lung) was 5.47 µM, the GI50 (NCI-H522 lung) was 2.07 µM and the TGI (NCI-H522 lung) was 4.52 µM. The GI50 (NCI/ADR-RES ovarian) was 2.42 µM, the TGI (NCI/ADR-RES ovarian) was 6.97 µM and the GI50 (OVCAR-4 ovarian) was 2.18 µM. For the same compound, the TGI (OVCAR-4 ovarian) was 5.82 µM, the GI50 (OVCAR-5 ovarian) was 1.92 µM and the TGI (OVCAR-5 ovarian) was 4.03 µM. The GI50 (OVCAR-8 ovarian) was 1.86 µM, the TGI (OVCAR-8 ovarian) was 3.86 µM and the GI50 (PC-3 prostate) was 2.26 µM. For the same compound, the TGI (PC-3 prostate) was 7.88 µM, the GI50 (RPMI-8226 leukemia) was 3.04 µM and the TGI (RPMI-8226 leukemia) was 10.6 µM. For the same compound, the GI50 (RXF 393 renal) was 1.65 µM, the TGI (RXF 393 renal) was 3.37 µM and the GI50 (SF-268 CNS) was 2.28 µM. It also gave a TGI (SF-268 CNS) of 5.43 µM, a GI50 (SF-295 CNS) of 1.72 µM and a TGI (SF-295 CNS) of 4.2 µM. It also gave a GI50 (SF-539 CNS) of 2.04 µM, a TGI (SF-539 CNS) of 4.43 µM and a GI50 (SK-MEL-2 melanoma) of 1.99 µM. It also gave a TGI (SK-MEL-2 melanoma) of 4.5 µM, a GI50 (SK-MEL-28 melanoma) of 2.38 µM and a TGI (SK-MEL-28 melanoma) of 6.92 µM. The GI50 (SK-MEL-5 melanoma) was 1.78 µM, the TGI (SK-MEL-5 melanoma) was 3.23 µM and the GI50 (SK-OV-3 ovarian) was 2.77 µM. The TGI (SK-OV-3 ovarian) was 8.16 µM, the GI50 (SN12C renal) was 3.62 µM and the TGI (SN12C renal) was 12.7 µM. The GI50 (SNB-19 CNS) was 3.81 µM, the TGI (SNB-19 CNS) was 14.6 µM and the GI50 (SNB-75 CNS) was 1.91 µM. For the same compound, the TGI (SNB-75 CNS) was 5.75 µM, the GI50 (SR leukemia) was 2.27 µM and the TGI (SR leukemia) was greater than 100 µM. The GI50 (SW-620 colon) was 1.73 µM, the TGI (SW-620 colon) was 3.99 µM and the GI50 (T-47D breast) was 2.29 µM. It also gave a TGI (T-47D breast) of 6.15 µM, a GI50 (TK-10 renal) of 2.66 µM and a TGI (TK-10 renal) of 7.09 µM. It also gave a GI50 (U251 CNS) of 2.29 µM, a TGI (U251 CNS) of 6.35 µM and a GI50 (UACC-257 melanoma) of 2.1 µM. For the same compound, the TGI (UACC-257 melanoma) was 5.19 µM, the GI50 (UACC-62 melanoma) was 2.16 µM and the TGI (UACC-62 melanoma) was 5.56 µM. The GI50 (UO-31 renal) was 1.18 µM and the TGI (UO-31 renal) was 3.94 µM.
